What all share (format): cell-based
The subject of series [1] is HEK293. The series is described as follows: Inhibition of TNFalpha-induced NFkappaB activation in human HEK293 cells expressing pGL4.32 [luc2p/NF-kBRE/Hygro] at 2.5 uM to 10 uM incubated for 2 hrs followed by TNFalpha addition and measured after 5 hrs by luciferase reporter gene assay.
Series [2] deals with HEK293. The series is described as follows: Inhibition of TNFalpha-induced NFkappaB activation in human HEK293 cells expressing pGL4.32 [luc2p/NF-kBRE/Hygro] assessed as NFkappaB activity by measuring relative light units at 3 uM incubated for 2 hrs followed by TNFalpha addition and measured after 5 hrs by luciferase reporter gene assay.
In series [3] the test system is HEK293. The series is described as follows: Inhibition of TNFalpha-induced NFkappaB activation in human HEK293 cells expressing pGL4.32 [luc2p/NF-kBRE/Hygro] assessed as NFkappaB activity by measuring relative light units at 0.75 uM incubated for 2 hrs followed by TNFalpha addition and measured after 5 hrs by luciferase reporter gene assay.
The test system of series [4] is HEK293. The series is described as follows: Inhibition of TNFalpha-induced NFkappaB activation in human HEK293 cells expressing pGL4.32 [luc2p/NF-kBRE/Hygro] assessed as NFkappaB activity by measuring relative light units at 1.5 uM incubated for 2 hrs followed by TNFalpha addition and measured after 5 hrs by luciferase reporter gene assay.
The test system of series [5] is HEK293. The series is described as follows: Cytotoxicity against human HEK293 cells at 3 uM after 7 hrs by WST-8 assay. The settings on record: hek293, 7 h.
The test system of series [6] is HEK293. The series is described as follows: Cytotoxicity against human HEK293 cells at 0.75 uM to 3 uM after 7 hrs by WST-8 assay. The settings on record: hek293, 7 h.
The test system of series [7] is HEK293. The series is described as follows: Inhibition of TNFalpha-induced NFkappaB activation in human HEK293 cells expressing pGL4.32 [luc2p/NF-kBRE/Hygro] at 80 uM incubated for 2 hrs followed by TNFalpha addition and measured after 5 hrs by luciferase reporter gene assay.

Each structure is given as a SMILES string. Activity calls are given as the source filed them. The rule behind the calls is not given here.

`C=C(CO)C(=O)O[C@H]1CC(=C)[C@@H]2C[C@H](O)C(=C)[C@@H]2[C@H]2OC(=O)C(=C)[C@@H]21` [CYNAROPICRIN]: the inhibition entry in the series on HEK293 [1] was “Active”. For the same compound, the Activity was 5.67 RLU with HEK293 [2]; 134 RLU in the series with HEK293 [3]; 72.8 RLU with HEK293 [4]; “Non-Toxic” in the series with HEK293 [5]; “Non-Toxic” with HEK293 [6].

On to `C=C(COC(C)=O)C(=O)O[C@H]1CC(=C)[C@@H]2C[C@H](OC(C)=O)C(=C)[C@@H]2[C@H]2OC(=O)C(=C)[C@@H]21`, for which the Activity with HEK293 [2] was 93.5 RLU; in the series on HEK293 [3] it was 171 RLU; with HEK293 [4], 142 RLU; with HEK293 [5], “Non-Toxic”; in the series with HEK293 [6] it was “Non-Toxic”.

Take `C=C(COCOC)C(=O)O[C@H]1CC(=C)[C@@H]2C[C@H](OCOC)C(=C)[C@@H]2[C@H]2OC(=O)C(=C)[C@@H]21`: the Activity in the series on HEK293 [2] is 8.97 RLU; with HEK293 [3], 154 RLU; in the series with HEK293 [4] it was 98.3 RLU; with HEK293 [5], “Non-Toxic”; in the series with HEK293 [6], “Non-Toxic”.

As to `C=C(COC)C(=O)O[C@H]1CC(=C)[C@@H]2C[C@H](OC)C(=C)[C@@H]2[C@H]2OC(=O)C(=C)[C@@H]21`, the Activity was 134 RLU in the series with HEK293 [2]; 174 RLU in the series on HEK293 [3]; 158 RLU in the series with HEK293 [4]; “Non-Toxic” with HEK293 [5]; “Non-Toxic” in the series with HEK293 [6].

Turning to `C=C1C(=O)O[C@@H]2[C@H]3C(=C)[C@@H](O)C[C@H]3C(=C)C[C@H](O)[C@@H]12` [DESACYLCYNAROPICRIN], the Activity in the series on HEK293 [2] is 96.4 RLU; in the series with HEK293 [3] it was 127 RLU; in the series with HEK293 [4] it was 119 RLU; in the series with HEK293 [5] it was “Non-Toxic”; in the series with HEK293 [6] it was “Non-Toxic”.

Consider `C=C1C(=O)O[C@@H]2[C@H]3C(=C)[C@@H](OCOC)C[C@H]3C(=C)C[C@H](O)[C@@H]12`, for which the Activity was 100 RLU in the series with HEK293 [2]; 127 RLU in the series with HEK293 [3]; 125 RLU with HEK293 [4]; “Non-Toxic” in the series with HEK293 [5]; “Non-Toxic” in the series on HEK293 [6].

In the case of `C=C(COC)C(=O)O[C@H]1CC(=C)[C@@H]2C[C@H](O)C(=C)[C@@H]2[C@H]2OC(=O)C(=C)[C@@H]21`, the Activity with HEK293 [2] is 137 RLU; in the series with HEK293 [3], 161 RLU; in the series with HEK293 [4], 151 RLU; in the series with HEK293 [5], “Non-Toxic”; in the series with HEK293 [6] it was “Non-Toxic”.

As to `C=C1[C@@H]2[C@H]3OC(=O)C(C)[C@@H]3[C@@H](OC(=O)C(C)CO)CC(=C)[C@@H]2C[C@@H]1O` (some centres not stated), the Activity in the series on HEK293 [2] is 137 RLU; in the series on HEK293 [3], 123 RLU; with HEK293 [4] it was 139 RLU; with HEK293 [5], “Non-Toxic”; with HEK293 [6], “Non-Toxic”.

As for `C=C1C(=O)O[C@@H]2[C@H]3C(=C)[C@@H](O)C[C@H]3C(=C)C[C@H](OC(=O)C(C)CO)[C@@H]12` (some centres not stated), the Activity with HEK293 [2] is 137 RLU; in the series on HEK293 [3] it was 123 RLU; with HEK293 [4], 135 RLU; with HEK293 [5], “Non-Toxic”; with HEK293 [6] it was “Non-Toxic”.

With `S=C(S)N1CCCC1`, the inhibition result in the series with HEK293 [7] is “Active”.

On to `C=C(COC(C)=O)C(=O)O[C@H]1CC(=C)[C@@H]2C[C@H](O)C(=C)[C@@H]2[C@H]2OC(=O)C(=C)[C@@H]21`, for which the Activity is 33.8 RLU with HEK293 [2]; 130 RLU in the series with HEK293 [3]; 110 RLU in the series with HEK293 [4]; “Non-Toxic” in the series with HEK293 [5]; “Non-Toxic” in the series with HEK293 [6].
